Measurements as given in patent US20150105252A1, “SUBSTITUTED PYRAZOLES AS HERBICIDES” (E I DU PONT DE NEMOURS AND COMPANY, priority 2013, published 2015).

Experiments:
[1] = system: morningglory; test: Test C preemergence; type: in vivo, Ipomoea coccinea
Method in brief: (§1)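 Visual control ratings on a 0–100 scale (100 = complete control) made against untreated controls after 13 to 15 days in greenhouse. Compounds applied in surfactant-containing solvent mixture, either preemergence to loam/sand-sown seeds or postemergence to 1- to 4-leaf plants (2–18 cm) in peat medium.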

[2] = system: ducksalad; test: Test B flood; type: in vivo, Heteranthera limosa; settings: 250 g ai/ha, visual rating on 0 to 100 scale (0 no effect, 100 complete control), 13 to 15 days
Method in brief: (§2)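 2-leaf plants; pots flooded 3 cm over soil; compound added to paddy water, depth kept constant. Greenhouse 13–15 d. Visual rating vs controls, 0–100 scale (100 = complete control); dash = no result.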

[3] = system: johnsongrass; test: Test C postemergence; type: in vivo, Sorghum halepense; settings: for Plant response rating (scale of 0 to 100 where 0 is no effect and 100 is complete control), Johnsongrass: Postemergence, 31 g ai/ha, visually evaluated after 13 to 15 days; for Johnsongrass plant response rating / Plant response rating, Johnsongrass: postemergence; for Johnsongrass plant response rating: 62 g ai/ha, scale 0 to 100
Method in brief: as §1

[4] = system: lambsquarters; test: Test C preemergence; type: in vivo, Chenopodium album
Method in brief: as §1

[5] = system: rice; test: Test B flood; type: in vivo, Oryza sativa; settings: 250 g ai/ha, visual rating on 0 to 100 scale (0 no effect, 100 complete control), 13 to 15 days
Method in brief: as §2

[6] = system: nutsedge, yellow; test: Test C postemergence; type: in vivo, Cyperus esculentus; settings: for Plant response rating (scale of 0 to 100 where 0 is no effect and 100 is complete control), Nutsedge, Yellow: Postemergence, 31 g ai/ha, visually evaluated after 13 to 15 days; for Nutsedge, Yellow plant response rating / Plant response rating, Nutsedge, Yellow: postemergence; for Nutsedge, Yellow plant response rating: 62 g ai/ha, scale 0 to 100
Method in brief: as §1

[7] = system: nutsedge, yellow; test: Test C preemergence; type: in vivo, Cyperus esculentus
Method in brief: as §1

[8] = system: waterhemp; test: Test C preemergence; type: in vivo, Amaranthus rudis
Method in brief: as §1

[9] = system: velvetleaf; test: Test C preemergence; type: in vivo, Abutilon theophrasti
Method in brief: as §1

[10] = system: kochia; test: Test C postemergence; type: in vivo, Kochia scoparia; settings: for Plant response rating (scale of 0 to 100 where 0 is no effect and 100 is complete control), Kochia: Postemergence, 31 g ai/ha, visually evaluated after 13 to 15 days; for Kochia plant response rating / Plant response rating, Kochia: postemergence; for Kochia plant response rating: 62 g ai/ha, scale 0 to 100
Method in brief: as §1

[11] = system: soybean; test: Test C postemergence; type: in vivo, Glycine max; settings: postemergence; for Plant response rating, Soybean: 250 g ai/ha, scale 0 to 100 (0 no effect, 100 complete control); for Soybean plant response rating: 125 g ai/ha, scale 0 to 100, 0 no effect, 100 complete control
Method in brief: as §1

[12] = system: crabgrass, large; test: Test A postemergence; type: in vivo, Digitaria sanguinalis
Method in brief: (§3)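 Both timings tested concurrently in loam/sand soil: preemergence by directed soil spray, postemergence on plants of 2–10 cm at the one- to two-leaf stage. Greenhouse holding period was approximately 10 days before visual injury assessment (0–100, 0 = no effect).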

[13] = system: barnyardgrass; test: Test A preemergence; type: in vivo, Echinochloa crus-galli; settings: preemergence; for Barnyardgrass plant response rating (0 to 100 scale, 0 is no effect, 100 is complete control): 125 g ai/ha, visual injury approx. 10 days after treatment; for Barnyardgrass plant response rating: 500 g ai/ha, visual injury after approx. 10 days, 0 to 100 scale (0 no effect, 100 complete control)
Method in brief: as §3

[14] = preemergence, 31 g ai/ha, visual rating, scale 0 to 100 (0 no effect, 100 complete control), 13 to 15 days
[15] = preemergence, 62 g ai/ha, scale 0 to 100 (0 no effect, 100 complete control), 13 to 15 days
[16] = preemergence, 125 g ai/ha, 13 to 15 days, scale 0 to 100, 0 = no effect, 100 = complete control
[17] = preemergence, 250 g ai/ha, scale 0 to 100, 0 is no effect, 100 is complete control
[18] = 250 g ai/ha, scale 0 to 100 (0 no effect, 100 complete control)
[19] = 125 g ai/ha, scale 0 to 100, 0 no effect, 100 complete control
[20] = Postemergence, 500 g ai/ha, 0 to 100 scale (0 no effect, 100 complete control)
[21] = postemergence, 125 g ai/ha, about 10 days, visual rating on 0 to 100 scale (0 no effect, 100 complete control)
[22] = Postemergence, 125 g ai/ha, 0 to 100 scale, 0 no effect, 100 complete control
[23] = Preemergence, rate head not shown (block before 16 g ai/ha), scale 0 to 100

Row | SMILES | Morningglory plant response rating [1, 15] | Plant response rating, Morningglory [1, 16] | Morningglory plant response rating [1, 17] | Plant response rating, Ducksalad [2] | Plant response rating (scale of 0 to 100 where 0 is no effect and 100 is complete control), Johnsongrass [3] | Johnsongrass plant response rating [3] | Plant response rating, Johnsongrass [3, 18] | Plant response rating, Johnsongrass [3, 19] | Lambsquarters plant response rating [4, 15] | Plant response rating, Lambsquarters [4, 16] | Lambsquarters plant response rating [4, 17] | Plant response rating, Rice [5] | Plant response rating (scale of 0 to 100 where 0 is no effect and 100 is complete control), Nutsedge, Yellow [6] | Nutsedge, Yellow plant response rating [6] | Plant response rating, Nutsedge, Yellow [6, 18] | Plant response rating, Nutsedge, Yellow [6, 19] | Nutsedge, Yellow plant response rating [7, 15] | Plant response rating, Nutsedge, Yellow [7, 16] | Nutsedge, Yellow plant response rating [7, 17] | Waterhemp plant response rating [8, 15] | also measured
1 | CCCc1cc(C(=O)NC(C)C)nn1Cc1ccnc(C(F)(F)F)c1 [Compound 186] | 70 | 100 | 100 | 80 | 5 | 5 | 95 | 5 | 100 | 100 | 100 | 75 | 5 | 5 | 15 | 5 | 60 | 85 | 98 | 100 | Morningglory plant response rating [1, 14]: 98; Lambsquarters plant response rating [4, 14]: 100; Nutsedge, Yellow plant response rating [7, 14]: 10; Waterhemp plant response rating [8, 14]: 100; Plant response rating, Waterhemp [8, 16]: 100; Waterhemp plant response rating [8, 17]: 100; Velvetleaf plant response rating [9, 14]: 100; Velvetleaf plant response rating [9, 15]: 100; Plant response rating, Velvetleaf [9, 16]: 100; Velvetleaf plant response rating [9, 17]: 100; Plant response rating (scale of 0 to 100 where 0 is no effect and 100 is complete control), Kochia [10]: 80; Kochia plant response rating [10]: 85; Plant response rating, Kochia [10, 18]: 95; Plant response rating, Kochia [10, 19]: 90; Plant response rating, Soybean [11]: 95; Soybean plant response rating [11]: 95; Crabgrass, Large plant response rating [12, 20]: 90; Crabgrass, Large plant response rating [12, 21]: 90; Barnyardgrass plant response rating (0 to 100 scale, 0 is no effect, 100 is complete control) [13]: 100; Barnyardgrass plant response rating [13]: 100
2 | CCCNC(=O)c1cc(OCC)n(Cc2ccnc(C(F)(F)F)c2)n1 [Compound 187] | 100 | 100 | 100 | 90 | 0 | 5 | 25 | 5 | 100 | 100 | 100 | 45 | 5 | 5 | 10 | 5 | 60 | 85 | 98 | 100 | Morningglory plant response rating [1, 14]: 85; Lambsquarters plant response rating [4, 14]: 100; Nutsedge, Yellow plant response rating [7, 14]: 25; Waterhemp plant response rating [8, 14]: 100; Plant response rating, Waterhemp [8, 16]: 100; Waterhemp plant response rating [8, 17]: 100; Velvetleaf plant response rating [9, 14]: 95; Velvetleaf plant response rating [9, 15]: 100; Plant response rating, Velvetleaf [9, 16]: 100; Velvetleaf plant response rating [9, 17]: 100; Plant response rating (scale of 0 to 100 where 0 is no effect and 100 is complete control), Kochia [10]: 85; Kochia plant response rating [10]: 90; Plant response rating, Kochia [10, 18]: 90; Plant response rating, Kochia [10, 19]: 90; Plant response rating, Soybean [11]: 98; Soybean plant response rating [11]: 95; Crabgrass, Large plant response rating [12, 20]: 90; Crabgrass, Large plant response rating [12, 21]: 90; Barnyardgrass plant response rating (0 to 100 scale, 0 is no effect, 100 is complete control) [13]: 90; Barnyardgrass plant response rating [13]: 100
3 | CCc1cc(C(=O)NCC(F)(F)F)nn1Cc1ccnc(SC(F)(F)F)c1 [Compound 214] | 98 | 100 | 100 | 90 | 0 | 0 | 5 | 5 | 100 | 100 | 100 | 60 | 0 | 10 | 5 | 5 | 55 | 65 | 65 | 100 | Morningglory plant response rating [1, 14]: 25; Lambsquarters plant response rating [4, 14]: 100; Nutsedge, Yellow plant response rating [7, 14]: 25; Waterhemp plant response rating [8, 14]: 100; Plant response rating, Waterhemp [8, 16]: 100; Waterhemp plant response rating [8, 17]: 100; Velvetleaf plant response rating [9, 14]: 35; Velvetleaf plant response rating [9, 15]: 100; Plant response rating, Velvetleaf [9, 16]: 100; Velvetleaf plant response rating [9, 17]: 100; Plant response rating (scale of 0 to 100 where 0 is no effect and 100 is complete control), Kochia [10]: 85; Kochia plant response rating [10]: 90; Plant response rating, Kochia [10, 18]: 90; Plant response rating, Kochia [10, 19]: 90; Plant response rating, Soybean [11]: 95; Soybean plant response rating [11]: 90; Crabgrass, Large plant response rating [12, 22]: 100; Crabgrass, Large plant response rating [12, 20]: 100; Barnyardgrass plant response rating (0 to 100 scale, 0 is no effect, 100 is complete control) [13]: 100; Barnyardgrass plant response rating [13]: 100
4 | CCc1cc(C(=O)NC2CC2)nn1Cc1ccnc(Br)c1 [Compound 220] | 5 | 65 | 75 | 65 | 0 | 0 | 25 | 20 | 98 | 100 | 100 | 15 | 0 | 0 | 10 | 40 | 0 | 5 | 5 | 95 | Plant response rating, Morningglory [1, 23]: 0; Plant response rating, Lambsquarters [4, 23]: 60; Plant response rating, Nutsedge, Yellow [7, 23]: 0; Plant response rating, Waterhemp [8, 23]: 75; Plant response rating, Waterhemp [8, 16]: 100; Waterhemp plant response rating [8, 17]: 100; Plant response rating, Velvetleaf [9, 23]: 5; Velvetleaf plant response rating [9, 15]: 20; Plant response rating, Velvetleaf [9, 16]: 75; Velvetleaf plant response rating [9, 17]: 100; Plant response rating (scale of 0 to 100 where 0 is no effect and 100 is complete control), Kochia [10]: 80; Kochia plant response rating [10]: 85; Plant response rating, Kochia [10, 18]: 90; Plant response rating, Kochia [10, 19]: 90; Plant response rating, Soybean [11]: 75; Soybean plant response rating [11]: 30; Crabgrass, Large plant response rating [12, 22]: 90; Crabgrass, Large plant response rating [12, 20]: 100; Barnyardgrass plant response rating (0 to 100 scale, 0 is no effect, 100 is complete control) [13]: 80; Barnyardgrass plant response rating [13]: 100
